This assay addresses Carbonic anhydrase 2 (Homo sapiens, UniProt P00918). The experiment in a line: Then 30 μL of 16 nM hCA II solution was added (8 nM final concentration), mixed five times. 30 μL of 4-NPA substrate solution was added (2.5 mM final concentration), mixed five times.

The values that follow come from ChEMBL document CHEMBL5727886, “Bicyclic compounds as dual ATX/CA inhibitors” (2020).

In general, pIC50 refers to the negative decadic logarithm of the IC50, by convention in mol/L. Read a high pIC50 as a small IC50.

Molecules are shown by their SMILES. pIC50: −log10 of the molar value.

In turn, `NS(=O)(=O)c1ccc(C(=O)N2C[C@H]3CN(C(=O)/C=C/c4ccc(OC(F)(F)F)cc4)C[C@]3(F)C2)c(F)c1` (relative stereo) showed a pIC50 of 8.22.
